Species on record: Rattus norvegicus
Assay: Open TG-GATES - Regimen: Single
Type: toxicity, organism-based, Sprague-Dawley
Set-up: regimen Single, gender Male, age 6 weeks
Details: in vivo, po, 0 mg/kg, route gavage, dose level Control; for APTT / Bas / Eos / Fbg / Hb / Ht / Lym / MCH / MCHC / MCV / Mono / Neu / PT / Plat / RBC / Ret / WBC: tissue Blood; for KIDNEY_L / KIDNEY_R / KIDNEY_TOTAL: tissue Kidney; for LIVER: tissue Liver; for A/G / ALP / ALT / AST / BUN / CRE / Ca / Cl / DBIL / GLC / IP / K / LDH / Na / PL / RALB / TBIL / TC / TG / TP / gamma-GTP: tissue Plasma

Structure (SMILES): CCOC(=O)[C@H](CCc1ccccc1)N[C@@H](C)C(=O)N1CCC[C@H]1C(=O)O
- TERMINAL_BW (3 h): 219.5 g
- APTT (3 h): 16.4 s
- Bas (3 h): 0%
- Eos (3 h): 1%
- Fbg (3 h): 205.6 mg/dL
- Hb (3 h): 13.1 g/dL
- Ht (3 h): 39.6%
- Lym (3 h): 78.2%
- MCH (3 h): 21.9 pg
- MCHC (3 h): 33%
- MCV (3 h): 66.3 fL
- Mono (3 h): 8.2%
- Neu (3 h): 13%
- PT (3 h): 12.1 s
- Plat (3 h): 115.4 x10_4/uL
- RBC (3 h): 596.8 x10_4/ul
- Ret (3 h): 9.2%
- WBC (3 h): 96.8 x10_2/uL
- KIDNEY_L (3 h): 1 g
- KIDNEY_R (3 h): 1 g
- KIDNEY_TOTAL (3 h): 2 g
- LIVER (3 h): 10.5 g
- A/G (3 h): 2.2
- ALP (3 h): 725.4 IU/L
- ALT (3 h): 37.6 IU/L
- AST (3 h): 66.2 IU/L
- BUN (3 h): 13.8 mg/dL
- CRE (3 h): 0.5 mg/dL
- Ca (3 h): 11 mg/dL
- Cl (3 h): 105.4 meq/L
- DBIL (3 h): 0.008 mg/dL
- GLC (3 h): 196.6 mg/dL
- IP (3 h): 10.2 mg/dL
- K (3 h): 4.8 meq/L
- LDH (3 h): 79.2 IU/L
- Na (3 h): 140.2 meq/L
- PL (3 h): 146 mg/dL
- RALB (3 h): 3.7 g/dL
- TBIL (3 h): 0.3 mg/dL
- TC (3 h): 77 mg/dL
- TG (3 h): 70.8 mg/dL
- TP (3 h): 5.3 g/dL
- gamma-GTP (3 h): 1.4 IU/L
- TERMINAL_BW (6 h): 212.8 g
- APTT (6 h): 16.4 s
- Bas (6 h): 0%
- Eos (6 h): 1%
- Fbg (6 h): 205.2 mg/dL
- Hb (6 h): 13.2 g/dL
- Ht (6 h): 39.9%
- Lym (6 h): 76.2%
- MCH (6 h): 21.6 pg
- MCHC (6 h): 33%
- MCV (6 h): 65.4 fL
- Mono (6 h): 6.4%
- Neu (6 h): 16.6%
- PT (6 h): 12.2 s
- Plat (6 h): 116.2 x10_4/uL
- RBC (6 h): 609.4 x10_4/ul
- Ret (6 h): 8.4%
- WBC (6 h): 118.4 x10_2/uL
- KIDNEY_L (6 h): 0.9 g
- KIDNEY_R (6 h): 0.9 g
- KIDNEY_TOTAL (6 h): 1.9 g
- LIVER (6 h): 9.5 g
- A/G (6 h): 2.2
- ALP (6 h): 837.6 IU/L
- ALT (6 h): 34.6 IU/L
- AST (6 h): 65.6 IU/L
- BUN (6 h): 9.8 mg/dL
- CRE (6 h): 0.5 mg/dL
- Ca (6 h): 10.8 mg/dL
- Cl (6 h): 105.2 meq/L
- DBIL (6 h): 0.022 mg/dL
- GLC (6 h): 198.6 mg/dL
- IP (6 h): 9.9 mg/dL
- K (6 h): 4.7 meq/L
- LDH (6 h): 74 IU/L
- Na (6 h): 139.4 meq/L
- PL (6 h): 130.6 mg/dL
- RALB (6 h): 3.7 g/dL
- TBIL (6 h): 0.4 mg/dL
- TC (6 h): 73 mg/dL
- TG (6 h): 46.8 mg/dL
- TP (6 h): 5.4 g/dL
- gamma-GTP (6 h): 1.6 IU/L
- TERMINAL_BW (9 h): 215 g
- APTT (9 h): 16.5 s
- Bas (9 h): 0%
- Eos (9 h): 1.2%
- Fbg (9 h): 215.4 mg/dL
- Hb (9 h): 13 g/dL
- Ht (9 h): 39.6%
- Lym (9 h): 81.4%
- MCH (9 h): 21.9 pg
- MCHC (9 h): 32.8%
- MCV (9 h): 66.8 fL
- Mono (9 h): 5%
- Neu (9 h): 12.8%
- PT (9 h): 11.7 s
- Plat (9 h): 112.2 x10_4/uL
- RBC (9 h): 593.2 x10_4/ul
- Ret (9 h): 8.7%
- WBC (9 h): 113.3 x10_2/uL
- KIDNEY_L (9 h): 1 g
- KIDNEY_R (9 h): 1 g
- KIDNEY_TOTAL (9 h): 1.9 g
- LIVER (9 h): 9.4 g
- A/G (9 h): 2.1
- ALP (9 h): 772.2 IU/L
- ALT (9 h): 31.2 IU/L
- AST (9 h): 60.8 IU/L
- BUN (9 h): 13.6 mg/dL
- CRE (9 h): 0.4 mg/dL
- Ca (9 h): 10.7 mg/dL
- Cl (9 h): 106.6 meq/L
- DBIL (9 h): 0.022 mg/dL
- GLC (9 h): 192.6 mg/dL
- IP (9 h): 10.1 mg/dL
- K (9 h): 4.8 meq/L
- LDH (9 h): 69.8 IU/L
- Na (9 h): 139 meq/L
- PL (9 h): 133.4 mg/dL
- RALB (9 h): 3.8 g/dL
- TBIL (9 h): 0.4 mg/dL
- TC (9 h): 69.6 mg/dL
- TG (9 h): 49.2 mg/dL
- TP (9 h): 5.5 g/dL
- gamma-GTP (9 h): 1.6 IU/L
- TERMINAL_BW (24 h): 230.9 g
- APTT (24 h): 16.3 s
- Bas (24 h): 0%
- Eos (24 h): 1.4%
- Fbg (24 h): 203.8 mg/dL
- Hb (24 h): 13.2 g/dL
- Ht (24 h): 39.8%
- Lym (24 h): 71.6%
- MCH (24 h): 21.6 pg
- MCHC (24 h): 33.1%
- MCV (24 h): 65.3 fL
- Mono (24 h): 8.2%
- Neu (24 h): 19%
- PT (24 h): 11.2 s
- Plat (24 h): 117.1 x10_4/uL
- RBC (24 h): 609.4 x10_4/ul
- Ret (24 h): 8.3%
- WBC (24 h): 114 x10_2/uL
- KIDNEY_L (24 h): 1.1 g
- KIDNEY_R (24 h): 1 g
- KIDNEY_TOTAL (24 h): 2.1 g
- LIVER (24 h): 11 g
- A/G (24 h): 2.4
- ALP (24 h): 834.2 IU/L
- ALT (24 h): 39.8 IU/L
- AST (24 h): 62.6 IU/L
- BUN (24 h): 18 mg/dL
- CRE (24 h): 0.5 mg/dL
- Ca (24 h): 10.9 mg/dL
- Cl (24 h): 106.4 meq/L
- DBIL (24 h): 0.012 mg/dL
- GLC (24 h): 198.8 mg/dL
- IP (24 h): 8.5 mg/dL
- K (24 h): 5.2 meq/L
- LDH (24 h): 86.4 IU/L
- Na (24 h): 141 meq/L
- PL (24 h): 155 mg/dL
- RALB (24 h): 3.9 g/dL
- TBIL (24 h): 0.4 mg/dL
- TC (24 h): 80 mg/dL
- TG (24 h): 84.6 mg/dL
- TP (24 h): 5.5 g/dL
- gamma-GTP (24 h): 1.2 IU/L
